Data: US6893846B2, “Primers for use in detecting beta-lactamases” (priority 1998, dated 2005)
In brackets after ≈: the same amount, converted by molar mass. Where two headings read alike, the source gives them in different places.

Experiments:
[1] = molecular target: single beta-lactamase in K. pneumoniae cell extracts (Klebsiella pneumoniae, UniProt P0AD64, E235K/G234S); test: Spectrophotometric hydrolysis assay on crude beta-lactamase extracts; conditions: K. pneumoniae Pit 82 extract, beta-lactamase pI 8.2; 100 μM substrate
[2] = molecular target: single beta-lactamase in K. pneumoniae cell extracts (Klebsiella pneumoniae, UniProt P0AD64, G234S); test: as above; conditions: K. pneumoniae Pit 100 extract, beta-lactamase pI 7.6; 100 μM substrate
[3] = molecular target: single beta-lactamase in K. pneumoniae cell extracts (Escherichia coli, UniProt P62593, E102K/R162S); test: as above; conditions: K. pneumoniae Pit 16 extract, beta-lactamase pI 5.6; 100 μM substrate
E. aerogenes [4] = test: Vitek automated susceptibility system; type: cell-based, Enterobacter aerogenes; conditions: the 31 selected E. aerogenes strains
Text: Among all E. aerogenes recovered from clinical specimens during an eighteen month period (September 1993 to March 1995), thirty-one E. aerogenes strains showing a resistance phenotype different from that observed with derepressed mutants normally encountered at the Hunter Holmes McGuire Medical Center, Richmond, Va. were selected for this study. The strains selected were intermediate to ceftriaxone but resistant to ceftazidime when tested with the Vitek automated susceptibility system (bioMerieux Vitek, St. Louis, Mo.). Derepressed mutants previously isolated from this center were usually resistant to both ceftriaxone and ceftazidime.

[5] = molecular target: single beta-lactamase in E. coli cell extracts (Escherichia coli, UniProt P62593, E102K/R162S); test: Spectrophotometric hydrolysis assay on crude beta-lactamase extracts; conditions: E. coli Pit 64 extract, beta-lactamase pI 5.6; 100 μM substrate
[6] = molecular target: single beta-lactamase in P. mirabilis cell extracts (Escherichia coli, UniProt P62593, E102K/R162S); test: as above; conditions: P. mirabilis Pit 85 extract, beta-lactamase pI 5.6; 100 μM substrate
[7] = tested on: E. coli C600N transconjugants; test: Susceptibility of transconjugants; type: cell-based, Escherichia coli; conditions: E. coli C600N transconjugants of E. aerogenes 187, 200, 220, 184
Method: Antibiotic susceptibilities were determined by standard disk-diffusion (NCCLS Standard M2-A6) and agar-dilution (NCCLS Standard M7-A4) procedures. Disks were obtained from Becton Dickinson Microbiology Systems (Cockeysville, Md.). Disk-diffusion susceptibilities to the following antibiotics were determined, ampicillin; amoxicillin clavulanic acid; aztreonam; cefazolin; cefoxitin; cefuroxime; cefotaxime; ceftriaxone; ceftazidime; cefepime; imipenem; gentamicin; trimethoprim/sulfamethoxazole and ciprofloxacin. […] The following quality control strains were run simultaneously with the test organisms Escherichia coli ATCC 25922, Pseudomonas aeruginosa ATCC 27853, and E. coli ATCC 35218. Throughout this study, results were interpreted using NCCLS criteria for disk diffusion (NCCLS M2-A6) and broth dilution (NCCLS M7-A4).
[…]. The filter paper mating technique with overnight incubation at 37° C. were performed as described previously (Philippon et al., Antimicrob. Agents Chemother., 33:1131-1136 (1989)). Transconjugants were selected on LB (Luria Bertani) agar [Difco (Detroit, Mich.)] plates containing 12 μg per ml nalidixic acid and 20 μg per ml ampicillin.

P. mirabilis = test: Agar dilution MIC, South African isolates; type: cell-based, Proteus mirabilis; conditions: 4 strains, tzp with tazobactam 4 μg/ml
Text: During a period of three months in 1993, […] strains of Klebsiella pneumoniae (13 blood, 5 burn, 7 wound, 11 tracheal isolates), 4 strains of Proteus mirabilis (all wound isolates) and 4 strains of Escherichia coli (1 blood, 1 burn, 2 wound isolates) were collected from patients at the following medical centers in South Africa: Tygerberg Hospital near Cape Town, King Edward VIII Hospital in Durban, Chris Hani Baragwanath Hospital in Soweto and Pretoria Academic Hospital in Pretoria. The strains were provided in response to a request for all strains of Enterobacteriaceae, lacking inducible beta-lactamases, that were intermediate or resistant to cefotaxime or ceftazidime. […] Therefore accurate prevalence data were not obtained.
Antibiotic susceptibility was determined by standard disk diffusion (NCCLS Standard M2-T4, 1994) and agar dilution (NCCLS Standard M7-T2, 1994) procedures. Standard powders of antimicrobial agents were kindly provided by the following companies: piperacillin and tazobactam (Lederle Laboratories, Wayne, N.J.); cefoxitin and imipenem, (Merck, Rathway, N.J.); cefotaxime, (Hoechst-Roussel Pharmaceuticals Inc., Somerville, N.J.); ceftazidime, (Glaxo Group Research Ltd., Greenford, England); aztreonam and cefepime, (Bristol-Myers Squibb, Princeton, N.J.). Disks for agar diffusion were obtained from Becton Dickinson Microbiology Systems (Cockeysville, Md.). For quality control purposes, the following quality control strains were run simultaneously with the test organisms E. coli ATCC 25922, Pseudomonas aeruginosa ATCC 27853, E. coli ATCC 35218, and Staphylococcus aureus ATCC 29213. Throughout this study, results were interpreted using NCCLS criteria for disk diffusion (NCCLS Standard M2-T4, 1994) and broth dilution (NCCLS Standard M7-T2, 1994).

E. aerogenes [8] = type: cell-based, Enterobacter aerogenes
Method: Antibiotic susceptibilities were determined by standard disk-diffusion (NCCLS Standard M2-A6) and agar-dilution (NCCLS Standard M7-A4) procedures. Disks were obtained from Becton Dickinson Microbiology Systems (Cockeysville, Md.). […] Throughout this study, results were interpreted using NCCLS criteria for disk diffusion (NCCLS M2-A6) and broth dilution (NCCLS M7-A4).

K. pneumoniae 225 [9] = conditions: test drug disk around amoxicillin-clavulanate disk
K. pneumoniae 225 [10] = test: Three-dimensional test (enzymatic inactivation of antibiotics); conditions: beta-lactamase-mediated hydrolysis by K. pneumoniae 225, lawn E. coli ATCC 25922
K. pneumoniae 225 [11] = test: NCCLS microdilution susceptibility test; type: cell-based, Klebsiella pneumoniae; conditions: Klebsiella pneumoniae, 225
[12] = tested on: E. coli C600 transconjugant; conditions: disk diffusion, Tc = transconjugate E. coli C600
K. pneumoniae = test: Agar dilution MIC, South African isolates; type: cell-based, Klebsiella pneumoniae; conditions: tzp with tazobactam 4 μg/ml
Text: (§1) The strains were provided in response to a request for all strains of Enterobacteriaceae, lacking inducible beta-lactamases, that were intermediate or resistant to cefotaxime or ceftazidime. […]

[13] = tested on: E. coli HB101 transformant (17 kb plasmid); conditions: disk diffusion, Tr (17 kb) = transformant E. coli HB101
E. coli = test: Agar dilution MIC, South African isolates; type: cell-based, Escherichia coli; conditions: tzp with tazobactam 4 μg/ml
Text: as §1

K. pneumoniae 225 [14] = test: NCCLS disk diffusion assay; type: cell-based, Klebsiella pneumoniae; conditions: disk diffusion, Kleb 225
[15] = tested on: beta-lactamases in sonic extracts of K. pneumoniae
[16] = molecular target: beta-lactamases in sonic extracts of K. pneumoniae (Escherichia coli, UniProt P62593)
[17] = molecular target: beta-lactamases in sonic extracts of K. pneumoniae (Klebsiella pneumoniae, UniProt P0AD64, E235K/G234S); conditions: Kpn2, beta-lactamase pI 8.2 (SHV-5)
[18] = molecular target: beta-lactamases in sonic extracts of K. pneumoniae (Klebsiella pneumoniae, UniProt P0AD64); conditions: Kpn1, beta-lactamase pI 7.6 (SHV-1)
[19] = molecular target: beta-lactamases in sonic extracts of E. coli (Escherichia coli, UniProt P62593); test: Isoelectric focusing overlay: cefotaxime hydrolysis and inhibitors
[20] = tested on: beta-lactamases in sonic extracts of E. coli; test: as above
[21] = tested on: beta-lactamases in sonic extracts of E. aerogenes; test: Isoelectric focusing overlay: cefotaxime hydrolysis, inhibitors, induction
[22] = Kpn1, beta-lactamase pI 5.6 (TEM-10 or 26)
[23] = Kpn2, beta-lactamase pI 7.6 (SHV-2 or 8)
[24] = Kpn3, beta-lactamase pI 8.0 (AmpC)
[25] = Kpn2, beta-lactamase pI 5.4 (TEM-1)
[26] = Kpn3, beta-lactamase pI 5.4 (TEM-1)
[27] = Ec1, beta-lactamase pI 5.4 (TEM-1)
[28] = Ec2, beta-lactamase pI 5.4 (TEM-1)
[29] = Ec1, beta-lactamase pI 5.6 (TEM-10 or 26)
[30] = Ec2, beta-lactamase pI 7.6 (SHV-2 or 8)
[31] = SHV-3 strain (1), Bush group 1 enzyme pI 8.3
[32] = SHV-3 strain (1), Bush group 2be enzyme pI 6.9
[33] = SHV-4 strains (29), Bush group 1 enzyme pI 8.3
[34] = SHV-4 strains (29), Bush group 2be enzyme pI 7.8
[35] = SHV-5 strain (1), Bush group 1 enzyme pI 8.3
[36] = SHV-5 strain (1), Bush group 2Be enzyme pI 8.0

CC(C)(O/N=C(\C(=O)N[C@@H]1C(=O)N2C(C(=O)[O-])=C(C[n+]3ccccc3)CS[C@H]12)c1csc(N)n1)C(=O)O [ceftazidime]
Hydrolysis [1]: 0.2 nmol of substrate hydrolyzed/m | Hydrolysis [2]: 0.1 nmol of substrate hydrolyzed/m | Hydrolysis [3]: 3 nmol of substrate hydrolyzed/m | Vitek susceptibility result (E. aerogenes [4]): resistant | Hydrolysis [5]: 2 nmol of substrate hydrolyzed/m | Hydrolysis [6]: 1 nmol of substrate hydrolyzed/m | susceptibility after transfer of plasmids encoding SHV beta-lactamase genes [7]: decreased susceptibility | MIC range (P. mirabilis): 16 to 64 µg/mL | MIC range (E. aerogenes [8]; 1 E. aerogenes strain with Bush group 1 and group 2be (SHV-3) enzymes): 4 µg/mL (≈ 7.32 µM) | MIC range (E. aerogenes [8]; 1 E. aerogenes strain with Bush group 1 and group 2be (SHV-5) enzymes): 32 µg/mL (≈ 58.5 µM) | MIC range (E. aerogenes [8]; 29 E. aerogenes strains with Bush group 1 and group 2be (SHV-4) enzymes): 8 to 32 µg/mL | susceptibility by MIC (E. aerogenes [8]; all E. aerogenes strains): decreased susceptibility | clavulanate double-disk potentiation test (K. pneumoniae 225 [9]): positive | three dimensional test (K. pneumoniae 225 [10]): positive | MIC (K. pneumoniae 225 [11]): > 64 µg/mL | Zone Size [12]: 7 mm | MIC range (K. pneumoniae; resistance phenotype Kpn1, 8 strains): >128 µg/mL | MIC range (K. pneumoniae; resistance phenotype Kpn2, 28 strains): 4 to 128 µg/mL | MIC range (K. pneumoniae; resistance phenotype Kpn3 (K. pneumoniae Pit 68), 1 strain, listed as caz): 4 µg/mL | Zone Size [13]: 33 mm | MIC range (E. coli; resistance phenotype Ec1, 3 strains): >128 µg/mL | MIC range (E. coli; resistance phenotype Ec2, 1 strain): 4 µg/mL | Zone Size (K. pneumoniae 225 [14]): 8 mm

O=C(O)[C@H]1/C(=C/CO)O[C@@H]2CC(=O)N21 [clavulanate]
Inhibited by [15, 22]: Yes | Inhibited by [15, 23]: Yes | Inhibited by [15, 24]: No | Inhibited by [16, 25]: Yes | Inhibited by [16, 26]: Yes | Inhibited by [17]: No | Inhibited by [18]: Yes | Inhibited by [19, 27]: Yes | Inhibited by [19, 28]: Yes | Inhibited by [20, 29]: Yes | Inhibited by [20, 30]: Yes | Inhibited by [21, 31]: no | Inhibited by [21, 32]: yes | Inhibited by [21, 33]: no | Inhibited by [21, 34]: yes | Inhibited by [21, 35]: no | Inhibited by [21, 36]: yes

Cc1onc(-c2ccccc2Cl)c1C(=O)N[C@@H]1C(=O)N2[C@@H]1SC(C)(C)[C@@H]2C(=O)O [cloxacillin]
Inhibited by [15, 22]: No | Inhibited by [15, 23]: No | Inhibited by [15, 24]: Yes | Inhibited by [16, 25]: No | Inhibited by [16, 26]: No | Inhibited by [17]: Yes | Inhibited by [18]: No | Inhibited by [19, 27]: No | Inhibited by [19, 28]: No | Inhibited by [20, 29]: No | Inhibited by [20, 30]: No | Inhibited by [21, 31]: yes | Inhibited by [21, 32]: no | Inhibited by [21, 33]: yes | Inhibited by [21, 34]: no | Inhibited by [21, 35]: yes | Inhibited by [21, 36]: no
